Measured values reported in patent publication US11980188B2, “Spiro cyclohexanedione derivates as herbicides” (SYNGENTA PARTICIPATIONS AG, priority 2018, dated 2024).

What was measured:
Experiment in all cases: Glasshouse herbicide test, pre- and post-emergence, percentage damage
Format in all cases: in vivo
[1] = test system: Alopecurus myosuroides (ALOMY); settings: 250 g/h, evaluated after 13 days, percentage damage on five point scale; for ALOMY POST: post-emergence; for ALOMY PRE: pre-emergence
Method: (§1) Seeds of a variety of test species are sown in standard soil in pots (Lolium perenne (LOLPE), Setaria faberi (SETFA), Alopecurus myosuroides (ALOMY), Echinochloa crus-galli (ECHCG), Avena fatua (AVEFA)). After cultivation for one day (pre-emergence) or after 8 days cultivation (post-emergence) under controlled conditions in a glasshouse (at 24/16° C., day/night; 14 hours light; 65% humidity), the plants are sprayed with an aqueous spray solution derived from the formulation of the technical active ingredient in acetone/water (50:50) solution containing 0.5% Tween 20 (polyoxyethelyene sorbitan monolaurate, CAS RN 9005-64-5). Compounds are applied at […]. The test plants are then grown in a glasshouse under controlled conditions in a glasshouse (at 24/16° C., day/night; 14 hours light; 65% humidity) and watered twice daily. After 13 days for pre and post-emergence, the test is evaluated for the percentage damage caused to the plant. The biological activities are shown in the following table on a five point scale (5=80-100%; 4=60-79%; 3=40-59%; 2=20-39%; 1=0-19%).

[2] = test system: Avena fatua (AVEFA); settings: 250 g/h, evaluated after 13 days, percentage damage on five point scale; for AVEFA POST: post-emergence; for AVEFA PRE: pre-emergence
Method: as §1

[3] = test system: Echinochloa crus-galli (ECHCG); settings: 250 g/h, evaluated after 13 days, percentage damage on five point scale; for ECHCG POST: post-emergence; for ECHCG PRE: pre-emergence
Method: as §1

[4] = test system: Lolium perenne (LOLPE); settings: 250 g/h, evaluated after 13 days, percentage damage on five point scale; for LOLPE POST: post-emergence; for LOLPE PRE: pre-emergence
Method: as §1

[5] = test system: Setaria faberi (SETFA); settings: 250 g/h, evaluated after 13 days, percentage damage on five point scale; for SETFA POST: post-emergence; for SETFA PRE: pre-emergence
Method: as §1

Compound	ALOMY POST [1]	ALOMY PRE [1]	AVEFA POST [2]	AVEFA PRE [2]	ECHCG POST [3]	ECHCG PRE [3]	LOLPE POST [4]	LOLPE PRE [4]	SETFA POST [5]	SETFA PRE [5]
CON1CCC2(CC1)CC(=O)C(c1c(C)cc(-c3ncc(Cl)cn3)cc1C)C(=O)C2 [Compound A1]	5 (5=80-100%)	5 (5=80-100%)	5 (5=80-100%)	5 (5=80-100%)	5 (5=80-100%)	5 (5=80-100%)	5 (5=80-100%)	5 (5=80-100%)	5 (5=80-100%)	5 (5=80-100%)
CON1CCC2(CC1)CC(=O)C(c1c(C)cc(-c3ncc(F)cn3)cc1C)C(=O)C2 [Compound A2, 9-[4-(5-fluoropyrimidin-2-yl)-2,6-dimethyl-phenyl]-3-methoxy-3-azaspiro[5.5]undecane-8,10-dione]	5 (5=80-100%)	5 (5=80-100%)	5 (5=80-100%)	5 (5=80-100%)	5 (5=80-100%)	5 (5=80-100%)	5 (5=80-100%)	5 (5=80-100%)	5 (5=80-100%)	5 (5=80-100%)
CON1CCC2(CC1)CC(=O)C(c1c(C)cc(-c3ccc(C#N)cn3)cc1C)C(=O)C2 [Compound A3]	5 (5=80-100%)	5 (5=80-100%)	5 (5=80-100%)	5 (5=80-100%)	5 (5=80-100%)	5 (5=80-100%)	5 (5=80-100%)	5 (5=80-100%)	5 (5=80-100%)	5 (5=80-100%)
CON1CCC2(CC1)CC(=O)C(c1c(C)cc(-n3cc(Cl)cn3)cc1C)C(=O)C2 [Compound A5]	5 (5=80-100%)	5 (5=80-100%)	5 (5=80-100%)	5 (5=80-100%)	5 (5=80-100%)	5 (5=80-100%)	5 (5=80-100%)	5 (5=80-100%)	5 (5=80-100%)	5 (5=80-100%)
CON1CCC2(CC1)CC(=O)C(c1c(C)cc(-c3ccc(F)cc3)cc1C)C(=O)C2 [Compound A6]	5 (5=80-100%)	5 (5=80-100%)	5 (5=80-100%)	5 (5=80-100%)	5 (5=80-100%)	5 (5=80-100%)	5 (5=80-100%)	5 (5=80-100%)	5 (5=80-100%)	5 (5=80-100%)
COc1cc(-c2ncc(F)cn2)cc(OC)c1C1C(=O)CC2(CCN(OC)CC2)CC1=O [Compound A8]	5 (5=80-100%)	5 (5=80-100%)	5 (5=80-100%)	5 (5=80-100%)	5 (5=80-100%)	5 (5=80-100%)	5 (5=80-100%)	5 (5=80-100%)	5 (5=80-100%)	5 (5=80-100%)
COc1cc(-c2ccc(F)cc2)cc(C)c1C1C(=O)CC2(CCN(OC)CC2)CC1=O [Compound A9]	5 (5=80-100%)	5 (5=80-100%)	5 (5=80-100%)	5 (5=80-100%)	5 (5=80-100%)	5 (5=80-100%)	5 (5=80-100%)	5 (5=80-100%)	5 (5=80-100%)	5 (5=80-100%)
COc1cc(-c2ncc(F)cn2)cc(C)c1C1C(=O)CC2(CCN(OC)CC2)CC1=O [Compound A10]	5 (5=80-100%)	5 (5=80-100%)	5 (5=80-100%)	5 (5=80-100%)	5 (5=80-100%)	5 (5=80-100%)	5 (5=80-100%)	5 (5=80-100%)	5 (5=80-100%)	5 (5=80-100%)
Cc1cc(-c2ccc(F)cc2)cc(C)c1C1C(=O)CC2(CCN(C(=O)OC(C)(C)C)CC2)CC1=O [Compound A11]	5 (5=80-100%)	5 (5=80-100%)	4 (4=60-79%)	4 (4=60-79%)	5 (5=80-100%)	5 (5=80-100%)	5 (5=80-100%)	5 (5=80-100%)	5 (5=80-100%)	5 (5=80-100%)
Cc1cc(-c2ccc(F)cc2)cc(C)c1C1C(=O)CC2(CCN(C(=O)NC(C)(C)C)CC2)CC1=O [Compound A57]	–	–	4 (4=60-79%)	1 (1=0-19%)	5 (5=80-100%)	5 (5=80-100%)	5 (5=80-100%)	5 (5=80-100%)	5 (5=80-100%)	5 (5=80-100%)
